Data on 9 compounds can be found in patent US8575128B2, “Methods for transdifferentiation of body tissues” (priority 1999, dated 2013).

“And” between values parts separate entries of the source, which are not always exact repeats. Equal values may be shown once. “Also recorded” adds a separate entry of the source. Where no end group is shown, it is not given here.

The subject of data set [1] is human melanoma cell line G-361. Kind of data set: Transdifferentiation of G-361 melanoma cells in culture. It counts as cell-based. On the set-up: Phenotypic changes in the cell population: dose or concentration left out as unconfirmed. As to conditions: 7 days. Here is the method: A human melanoma cell line. G-361, was purchased from the American Type Culture Collection (ATCC catalog number CRL-1424, Manassas, Va.) in a cryopreserved state. Upon receipt, the tube containing the frozen cells was rapidly thawed in a 371C water bath by swirling the bottom ⅓ of the tube for less than 2 minutes. All subsequent steps were conducted using standard methods of sterile technique. The cells were transferred to a T-25 flask containing 5 ml of pre-warmed McCoy=s 5A modified medium (Life Technologies, Rockville, Md.) and incubated at 371 C in a humidified CO2 incubator. After approximately 24 hours, the original medium was removed and replaced with fresh medium and the cells allowed to grow until they reached approximately 70-80% confluency with the medium being replaced every 2-3 days as needed. At this point, the cells were subcultured into Leighton tubes at low cell densities using well known typsin-EDTA subculturing techniques. After subculturing, the cells were allowed to re-establish their growth for 48 hours prior to administration of drugs.
Few cells resembled a normal melanocyte phenotype. […] The majority of the cells appeared to be epithelial in morphology. […] The microscopic phenotypic heterogeneity observed was compatible with karyotypic analysis provided by ATCC showing a heterogeneous population with regards to chromosome number.
Later, beta-carotene in tetrahydrofuran was added to McCoy=s 5A modified medium to a final concentration of about 33 mg/ml with a final concentration of 0.5% THF. This supplemented medium was added to the Leighton tubes after removal of un-supplemented medium and was replaced every 2 days during the 7 clay experimental period. At the end of 7 days, the cultures were fixed in methanol and the cover slips were Giemsa stained.
Methods: The melanoma cell line G-361, described in Example 1.4 above was used Guanosine was added to McCoy=s 5A modified medium to a final concentration of 3 mg/ml. This supplemented medium was added to the Leighton tubes after removal of unsupplemented medium and was replaced every 2 days during the 7 day experimental period. At the end of 7 days, the cultures were fixed in methanol and the cover slips were Giemsa stained.
Methods: The melanoma cells line G-361, described in Example 14 above was used Guanosine was added to McCoy=s 5A modified medium to final concentration of 3 mg/ml. This supplemented medium was added to the Leighton tubes after removal of un-supplemented medium and was replaced every 2 days for 7 days. Beta-carotene in THF was added to McCoy=s 5A modified medium at a final concentration of 33 mg/ml with a final concentration of 0.5% THF. […]

Data set [2] concerns melanophores and xanthophores. Conditions: for Cells containing both melanosomes and pterinosomes (melanophore to xanthophore transdifferentiation), light microscopy: Gomori trichrome stained skin, zinc acetate 7 and 12 days; for Cells containing both melanosomes and pterinosomes (melanophore to xanthophore transdifferentiation), light microscopy / Time on feeding at which the animal died: substance sprinkled on food every other day; for Cells containing both melanosomes and pterinosomes (melanophore to xanthophore transdifferentiation), light microscopy / Colour of the animal by inspection: cGMP 22 days, GMP 67 days; for Identification as transdifferentiation agent by the assay: summary statement; for Direction of chromatophore transdifferentiation from macro observations and photographs of whole animals: fed as in Examples A-C. The source says:
Larval Axolotls have an epidermis on a thin basement membrane, under which is a thick collagen layer (green when stained with Gomori trichrome for light microscopy.) Only 3 types of cells are present immediately below and slightly embedded in the collagen layer-(a) fibroblasts, which are generally fusiform and have a characteristic light and ultrastructural appearance, (b) melanophores, which contain numerous round or oval black melanosomes, as well as some premelanosomes, and (c) xanthophores, which, contain organelles known as pterinosomes. These appear as vacuoles in light microscopy and vacuoles with wispy or concentric layered material in electron microscopy. In general, melanosomes are normally found only in melanophores and pterinosomes in xanthophores.
All Axolotls were 3-5 cm in length at the beginning of the experiment and were obtained from the Indiana University Axolotl Colony, Bloomington, Ind.).
Temperature was 22 °C with a 12 hour light/12 hour dark
photoperiod. Water was changed daily before feeding, and when the animals were removed from feeding an hour later. They were fed about every day. Every other day, the experimental substance was sprinkled on the beef or fish pellets. All experimental reagents were obtained from Sigma (St. Louis Mo.). […] For feeding, beef liver was placed on the raised bottom partially in and partially out of the water. This permitted the animal to sense the food in the water but prevented the cGMP sprinkled on the beef from washing away. […] For feeding the animals were transferred to smaller plastic containers (weighing canoes) which have one side sloped. The pellets were placed on the slope, partially in and partially out of the water. This permitted the animal to sense the food in the water but prevented the cGMP sprinkled on the pellet from washing away. Deer Park Spring Water (Breingsville, Pa.) was used exclusively.
The animals were observed about weekly under an Olympus SZ stereomicroscope and most were photographed prior to sacrifice or shortly (hours) after death. Animals were fixed in 10% Formalin and 4 mm punch biopsies of skin were processed routinely for histology (Gomori Trichrome) by Charles River Laboratories (Wilmington, Mass.). Slides were examined in an Olympus (Woodbury, N.Y.) BX40 microscope.
Three animals (a control and two GMP fed animals) were biopsied with a 2 mm punch and fixed in Trump=s fixative for 24 hours, and processed routinely for electron microscopy. They were postfixed in 2% osmium tetroxide, dehydrated in a serials of alcohols and embedded in Epon-Araldite (1:1). Processing and photography were performed at the Electron Imaging Facility, Rutger=s University, Piscataway, N.J.

A further data set concerns chromatophores. Conditions: literature reports (Frost; Thibaudeau and Holder; Bagnara); cited from earlier work.
A further data set relates to melanocytes. As to conditions: Dupin et al. 2000; cited from earlier work.

`CC1=C(/C=C/C(C)=C/C=C/C(C)=C/C=C/C=C(C)/C=C/C=C(C)/C=C/C2=C(C)CCCC2(C)C)C(C)(C)CCC1` [Beta-carotene, beta-carotene]: in data set [1] (about 33 mg/ml in 0.5% THF), the “Cell death compared with control cultures” value is recorded as “a large segment of the starting population died” and the “Mitotic figures in remaining cell population” value is on record as “no mitotic figures observed”. In addition, the “Morphology of remaining cells” value in data set [1] (about 33 mg/ml in 0.5% THF, Giemsa stain) was “most had triangular morphology and a large nucleus, consistent with neural cells, or were fusiform in shape, consistent with neuroglial or neurilemmal (Schwann) cells”.
For the compound `Nc1nc2c(ncn2[C@@H]2O[C@H](COP(=O)(O)O)[C@@H](O)[C@H]2O)c(=O)[nH]1` [GMP, guanosine 5′-monophosphate], in data set [2], the “Cells containing both melanosomes and pterinosomes (melanophore to xanthophore transdifferentiation), light microscopy” value is “clear evidence of transdifferentiation by the presence of cells containing both pterinosomes and melanosomes; also recorded: transdifferentiating from a melanocyte into a xanthophore”; the “Colour of the animal by inspection” value is “markedly lighter by inspection and had a yellow hue”; the “Identification as transdifferentiation agent by the assay” value is “transdifferentiation agents”. In data set [2] (fed 67 days), the “Cells and organelles in skin, electron microscopy” value was “many cells in which both melanosomes and pterinosomes were, present; also recorded: organelles which appeared to be hybrids of melanosomes and pterinosomes”.
`CC(=O)[O-].CC(=O)[O-].[Zn+2]` [Zinc Acetate, reference compound]: in data set [2], the “Cells containing both melanosomes and pterinosomes (melanophore to xanthophore transdifferentiation), light microscopy” value is “cells with both melanosomes and pterinosomes”; the “Time on feeding at which the animal died” value was 7 days and 12 days; the “Identification as transdifferentiation agent by the assay” value is “transdifferentiation agents”.
On to `Nc1nc2c(ncn2[C@@H]2O[C@@H]3COP(=O)(O)O[C@H]3[C@H]2O)c(=O)[nH]1` [cGMP, guanosine 3′,5′-cyclic monophosphate], for which, in data set [2], the “Cells containing both melanosomes and pterinosomes (melanophore to xanthophore transdifferentiation), light microscopy” value is “presence of melanosomes and pterinosomes in several cells”; the “Colour of the animal by inspection” value is “lighter by inspection”; the “Time on feeding at which the animal died” value was 22 days; the “Identification as transdifferentiation agent by the assay” value is recorded as “transdifferentiation agents”.
For the compound `Nc1cc[nH]c(=O)n1` [cytosine], the “Direction of chromatophore transdifferentiation from macro observations and photographs of whole animals” value in data set [2] is listed as “transdifferentiates xanthophores to melanophores”.
As for `Nc1nc2c(ncn2[C@@H]2O[C@H](CO)[C@@H](O)[C@H]2O)c(=O)[nH]1` [guanosine], the “Phenotypic changes in the cell population” value in data set [1] (Giemsa stain) is “many cells with an increased nuclear to cytoplasmic ratio; also recorded: increased number of triangular cells consistent with neural phenotypes”. In addition, the “Direction of chromatophore transdifferentiation from macro observations and photographs of whole animals” value in data set [2] is given as “transdifferentiate melanophores to xanthophores”. The “Transdifferentiation of Axolotl chromatophores” value with chromatophores is “acted as a transdifferentiation agent; also recorded: transdifferentiate from one pigmented cell type to another”.
Turning to `O[C@H]1[C@H](O)[C@@H](O)[C@H](O)[C@@H](O)[C@H]1O` [myo-inositol], in data set [2], the “Direction of chromatophore transdifferentiation from macro observations and photographs of whole animals” value is “transdifferentiate melanophores to xanthophores”; the “Identification as transdifferentiation agent by the assay” value is recorded as “transdifferentiation agents”.
With `Cl.Cl.Cl.Cl.NCCNCCNCCN` [trien, triethylenetetramine tetrahydrochloride], the “Direction of chromatophore transdifferentiation from macro observations and photographs of whole animals” value in data set [2] is given as “transdifferentiate melanophores to xanthophores”.
On to “Endothelian 3: Factor reported by Dupin et al. to induce conversion of melanocytes into glial cells (CTCFTYKDKECVYYCHLDIIW; ends and bridges not checked; cysteine pairing not given here; UniProt P14138 97-117, looked up)”, for which the “Conversion of melanocytes into glial cells” value with melanocytes was “induce the conversion of melanocytes into glial cells”.
